# Activity calls are given as the source filed them. Rule as the data show it, for most assays here: actives have a measured Kd and inactives only a lower limit.
# Tests used:
# [1] = biological target: T1, Ras-related protein Rab-10 (Homo sapiens, UniProt P61026)
# T1 sequence (P61026 whole entry): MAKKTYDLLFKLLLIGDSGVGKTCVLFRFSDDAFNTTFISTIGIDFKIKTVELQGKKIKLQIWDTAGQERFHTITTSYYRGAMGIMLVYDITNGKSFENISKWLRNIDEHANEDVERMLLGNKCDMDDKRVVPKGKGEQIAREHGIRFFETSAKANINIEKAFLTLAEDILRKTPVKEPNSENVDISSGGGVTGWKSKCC
# [2] = biological target: T2, Serine/threonine-protein kinase ULK1 (Homo sapiens, UniProt O75385)
# T2 sequence (O75385 whole entry): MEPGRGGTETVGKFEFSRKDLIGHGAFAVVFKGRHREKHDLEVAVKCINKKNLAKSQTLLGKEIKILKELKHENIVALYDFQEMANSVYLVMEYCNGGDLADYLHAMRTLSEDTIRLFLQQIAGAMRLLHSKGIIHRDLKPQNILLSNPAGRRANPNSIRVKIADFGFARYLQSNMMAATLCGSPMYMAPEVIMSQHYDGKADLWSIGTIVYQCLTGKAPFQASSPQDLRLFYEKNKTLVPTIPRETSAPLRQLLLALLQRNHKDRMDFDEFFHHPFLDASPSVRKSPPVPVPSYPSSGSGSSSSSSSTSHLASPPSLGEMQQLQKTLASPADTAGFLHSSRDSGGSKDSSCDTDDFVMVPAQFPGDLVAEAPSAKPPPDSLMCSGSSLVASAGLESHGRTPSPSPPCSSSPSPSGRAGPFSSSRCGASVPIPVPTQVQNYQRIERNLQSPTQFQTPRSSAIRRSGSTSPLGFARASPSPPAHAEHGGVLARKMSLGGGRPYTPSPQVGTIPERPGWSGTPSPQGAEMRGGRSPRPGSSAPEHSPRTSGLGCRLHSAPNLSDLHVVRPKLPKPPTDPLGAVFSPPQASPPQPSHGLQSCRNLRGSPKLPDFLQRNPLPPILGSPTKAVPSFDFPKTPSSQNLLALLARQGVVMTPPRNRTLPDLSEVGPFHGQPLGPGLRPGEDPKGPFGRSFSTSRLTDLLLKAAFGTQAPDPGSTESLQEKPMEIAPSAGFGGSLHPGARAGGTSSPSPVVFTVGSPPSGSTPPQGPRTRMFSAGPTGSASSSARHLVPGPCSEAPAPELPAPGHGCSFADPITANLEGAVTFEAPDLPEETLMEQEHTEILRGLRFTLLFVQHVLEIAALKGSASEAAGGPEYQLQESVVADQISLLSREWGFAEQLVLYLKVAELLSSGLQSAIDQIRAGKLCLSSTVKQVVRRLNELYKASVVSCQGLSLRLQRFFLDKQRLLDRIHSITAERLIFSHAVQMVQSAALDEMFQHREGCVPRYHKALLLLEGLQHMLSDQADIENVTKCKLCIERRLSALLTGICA
# dCTP pyrophosphatase 1 = biological target: T3, dCTP pyrophosphatase 1 (Homo sapiens, UniProt Q9H773)
# T3 sequence (Q9H773 whole entry): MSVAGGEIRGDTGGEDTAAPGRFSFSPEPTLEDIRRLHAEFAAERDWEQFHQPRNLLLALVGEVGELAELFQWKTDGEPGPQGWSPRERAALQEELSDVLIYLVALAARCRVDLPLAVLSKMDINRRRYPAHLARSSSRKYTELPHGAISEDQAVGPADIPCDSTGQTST
# [3] = biological target: cAMP-dependent protein kinase catalytic subunit beta (Homo sapiens, UniProt P22694)
# [4] = biological target: T4, Mitogen-activated protein kinase kinase kinase kinase 3 (Homo sapiens, UniProt Q8IVH8)
# T4 sequence (Q8IVH8 whole entry): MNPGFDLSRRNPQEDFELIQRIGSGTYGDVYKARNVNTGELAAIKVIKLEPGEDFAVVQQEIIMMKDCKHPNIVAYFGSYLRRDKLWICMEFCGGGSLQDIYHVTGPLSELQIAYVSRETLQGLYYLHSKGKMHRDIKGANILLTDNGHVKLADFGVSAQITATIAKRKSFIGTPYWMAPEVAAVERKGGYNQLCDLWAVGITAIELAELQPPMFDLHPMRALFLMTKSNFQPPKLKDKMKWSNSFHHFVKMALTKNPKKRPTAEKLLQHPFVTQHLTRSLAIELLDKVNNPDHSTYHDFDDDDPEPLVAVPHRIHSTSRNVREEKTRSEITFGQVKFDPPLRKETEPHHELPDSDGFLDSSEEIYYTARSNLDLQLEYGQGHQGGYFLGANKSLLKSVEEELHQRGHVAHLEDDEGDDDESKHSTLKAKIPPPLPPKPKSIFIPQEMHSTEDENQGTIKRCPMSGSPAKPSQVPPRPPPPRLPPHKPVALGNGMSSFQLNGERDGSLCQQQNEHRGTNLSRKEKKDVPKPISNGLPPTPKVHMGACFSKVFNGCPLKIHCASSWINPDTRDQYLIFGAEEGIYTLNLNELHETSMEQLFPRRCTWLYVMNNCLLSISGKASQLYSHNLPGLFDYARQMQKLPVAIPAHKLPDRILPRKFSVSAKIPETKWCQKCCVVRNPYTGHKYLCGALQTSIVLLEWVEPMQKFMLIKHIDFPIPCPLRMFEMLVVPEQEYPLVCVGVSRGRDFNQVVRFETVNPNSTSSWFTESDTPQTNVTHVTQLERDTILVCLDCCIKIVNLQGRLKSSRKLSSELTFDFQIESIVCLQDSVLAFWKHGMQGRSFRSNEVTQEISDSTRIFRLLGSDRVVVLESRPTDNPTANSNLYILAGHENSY
# [5] = biological target: Mitogen-activated protein kinase 3 (Homo sapiens, UniProt P27361)
# Mitogen-activated protein kinase 3, sequence (P27361 whole entry): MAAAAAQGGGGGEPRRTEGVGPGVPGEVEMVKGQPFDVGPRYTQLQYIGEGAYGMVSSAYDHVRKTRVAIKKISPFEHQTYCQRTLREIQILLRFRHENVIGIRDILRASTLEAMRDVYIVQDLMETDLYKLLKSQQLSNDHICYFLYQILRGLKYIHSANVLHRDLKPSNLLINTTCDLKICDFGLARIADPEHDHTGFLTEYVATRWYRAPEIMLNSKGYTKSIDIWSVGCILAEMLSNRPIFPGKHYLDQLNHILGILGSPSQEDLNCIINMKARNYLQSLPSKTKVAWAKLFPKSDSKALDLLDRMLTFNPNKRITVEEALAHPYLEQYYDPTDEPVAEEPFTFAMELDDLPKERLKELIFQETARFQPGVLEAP
# [6] = biological target: T5, Serine/threonine-protein kinase ULK3 (Homo sapiens, UniProt Q6PHR2)
# T5 sequence (Q6PHR2 whole entry): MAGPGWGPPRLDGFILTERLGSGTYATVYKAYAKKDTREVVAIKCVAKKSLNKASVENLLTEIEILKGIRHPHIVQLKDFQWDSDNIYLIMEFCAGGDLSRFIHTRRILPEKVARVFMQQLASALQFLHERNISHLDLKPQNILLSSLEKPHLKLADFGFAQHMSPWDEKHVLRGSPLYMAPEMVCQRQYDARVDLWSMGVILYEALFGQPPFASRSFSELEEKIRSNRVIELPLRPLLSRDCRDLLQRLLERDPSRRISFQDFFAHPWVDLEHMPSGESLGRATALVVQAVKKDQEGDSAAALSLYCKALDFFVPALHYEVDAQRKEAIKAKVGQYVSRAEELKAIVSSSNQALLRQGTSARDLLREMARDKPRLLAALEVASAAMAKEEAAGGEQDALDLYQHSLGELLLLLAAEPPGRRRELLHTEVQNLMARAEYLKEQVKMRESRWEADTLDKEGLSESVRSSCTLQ
# [7] = biological target: 5'-AMP-activated protein kinase catalytic subunit alpha-1 (Homo sapiens, UniProt Q13131)
# 5'-AMP-activated protein kinase catalytic subunit alpha-1, sequence (Q13131 whole entry): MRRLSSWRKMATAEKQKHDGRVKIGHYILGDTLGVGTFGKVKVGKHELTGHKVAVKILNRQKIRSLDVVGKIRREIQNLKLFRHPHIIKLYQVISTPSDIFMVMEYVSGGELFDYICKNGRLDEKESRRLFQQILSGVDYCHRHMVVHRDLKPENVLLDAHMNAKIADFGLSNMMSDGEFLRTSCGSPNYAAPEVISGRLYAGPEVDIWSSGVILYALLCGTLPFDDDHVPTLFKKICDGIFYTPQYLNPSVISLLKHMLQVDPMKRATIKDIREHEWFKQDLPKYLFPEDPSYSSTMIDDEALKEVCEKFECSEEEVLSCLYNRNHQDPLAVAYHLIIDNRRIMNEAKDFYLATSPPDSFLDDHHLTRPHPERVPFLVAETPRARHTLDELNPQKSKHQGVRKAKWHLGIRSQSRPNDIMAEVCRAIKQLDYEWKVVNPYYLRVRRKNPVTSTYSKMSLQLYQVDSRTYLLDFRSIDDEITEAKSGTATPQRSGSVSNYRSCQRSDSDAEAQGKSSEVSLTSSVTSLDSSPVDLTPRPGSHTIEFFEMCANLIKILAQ
# Also: in the data inactive means no Kd found up to 30 µM.
Kd [1],Kd [2],Kd (dCTP pyrophosphatase 1),Kd [3],Kd [4],Kd [5],Kd [6],Kd [7],Compound
> 30 µM (inactive),> 30 µM (inactive),> 30 µM (inactive),> 30 µM (inactive),> 30 µM (inactive),> 30 µM (inactive),0.612 µM (active),3.05 µM (active),CCNC(=O)C#Cc1ccc2c(c1)NC(=O)/C2=C(\Nc1ccc(CN(C)C)cc1)c1ccccc1
> 30 µM (inactive),> 30 µM (inactive),> 30 µM (inactive),> 30 µM (inactive),> 30 µM (inactive),> 30 µM (inactive),> 30 µM (inactive),> 30 µM (inactive),C=CC(=O)N1CCC[C@H](n2c(=O)n(-c3ccc(Oc4ccccc4)cc3)c3c(N)ncnc32)C1
> 30 µM (inactive),> 30 µM (inactive),> 30 µM (inactive),> 30 µM (inactive),> 30 µM (inactive),> 30 µM (inactive),> 30 µM (inactive),> 30 µM (inactive),COCc1c(-c2ccc(NC(=O)Nc3cc(C(F)(F)F)ccc3F)c(F)c2)c2c(N)ncnn2c1CN1CCOCC1
1.35 µM,> 30 µM (inactive),> 30 µM (inactive),> 30 µM (inactive),> 30 µM (inactive),> 30 µM (inactive),–,–,COc1cc(Nc2ncc3c(n2)-c2ccc(Cl)cc2C(c2c(F)cccc2OC)=NC3)ccc1C(=O)O [ALISERTIB]
> 30 µM (inactive),> 30 µM (inactive),> 30 µM (inactive),0.927 µM (active),> 30 µM (inactive),> 30 µM (inactive),–,0.05 µM (active),O=C(Nc1c[nH]nc1-c1nc2cc(CN3CCOCC3)ccc2[nH]1)NC1CC1 [AT-9283]
> 30 µM (inactive),–,> 30 µM (inactive),–,–,–,–,–,CNC(=O)c1ccccc1Sc1ccc2c(/C=C/c3ccccn3)n[nH]c2c1 [AXITINIB]
> 30 µM (inactive),–,> 30 µM (inactive),–,–,–,–,–,C[C@@H](Oc1cc(-n2cnc3ccc(CN4CCN(C)CC4)cc32)sc1C(N)=O)c1ccccc1C(F)(F)F [GSK-461364]
> 30 µM (inactive),> 30 µM (inactive),> 30 µM (inactive),> 30 µM (inactive),–,> 30 µM (inactive),> 30 µM (inactive),> 30 µM (inactive),CCn1cc(-c2ccnc3[nH]c(-c4cccc(CN(C)C)c4)cc23)c(-c2ccc(NC(=O)N(C)C)cc2)n1 [GSK-1070916]
> 30 µM (inactive),> 30 µM (inactive),> 30 µM (inactive),> 30 µM (inactive),–,> 30 µM (inactive),1.46 µM (active),–,Cc1[nH]c(/C=C2\C(=O)Nc3ccccc32)c(C)c1CCC(=O)O [ORANTINIB]
> 30 µM (inactive),–,> 30 µM (inactive),–,–,> 30 µM (inactive),> 30 µM (inactive),–,NC(=O)c1c(OCc2c(F)cc(Br)cc2F)nsc1NC(=O)NCCCCN1CCCC1 [OSI-632]
> 30 µM (inactive),> 30 µM (inactive),> 30 µM (inactive),–,2.19 µM (active),3.87 µM (active),0.626 µM (active),0.006 µM (active),Cc1nc(Nc2n[nH]c3c2CN(C(=O)N[C@H](CN(C)C)c2ccccc2)C3(C)C)c2sccc2n1 [PF-03758309]
> 30 µM (inactive),0.028 µM (active),> 30 µM (inactive),> 30 µM (inactive),0.766 µM (active),> 30 µM (inactive),0.019 µM (active),–,CC(=O)NCC(=O)N1[C@@H]2CC[C@H]1c1ccc(Nc3ncc(C(F)(F)F)c(NC4CCC4)n3)cc12 [PF-03814735]
> 30 µM (inactive),–,> 30 µM (inactive),–,–,–,–,–,O=C(NOCCO)c1cc(CN2OCCCC2=O)c(F)c(F)c1Nc1ccc(I)cc1F [RO-4987655]
> 30 µM (inactive),–,> 30 µM (inactive),–,–,–,–,–,N#CC[C@H](C1CCCC1)n1cc(-c2ncnc3[nH]ccc23)cn1 [RUXOLITINIB]
> 30 µM (inactive),> 30 µM (inactive),> 30 µM (inactive),> 30 µM (inactive),9.28 µM,> 30 µM (inactive),> 30 µM (inactive),–,CCS(=O)(=O)c1cccc(-c2cc(C(=O)NC3CCN(C)CC3)c(C)c3[nH]c4ncc(C)cc4c23)c1 [TAK-901]

Compound,Kd [1],Kd [2],Kd (dCTP pyrophosphatase 1),Kd [3],Kd [4],Kd [5],Kd [6],Kd [7]
CC(=O)c1cnc2ccc(-c3cc(Cl)c(O)c(Cl)c3)nc2c1N[C@H]1CC[C@H](CN(C)C)CC1,> 30 µM (inactive),> 30 µM (inactive),> 30 µM (inactive),> 30 µM (inactive),> 30 µM (inactive),> 30 µM (inactive),–,–
COc1cc([C@@H]2c3cc4c(cc3[C@H](O)[C@H]3COC(=O)[C@@H]23)OCO4)cc(OC)c1OC [AXL-1717],> 30 µM (inactive),–,> 30 µM (inactive),> 30 µM (inactive),> 30 µM (inactive),> 30 µM (inactive),> 30 µM (inactive),> 30 µM (inactive)
CC(C)(C)c1nc(-c2cccc(NS(=O)(=O)c3c(F)cccc3F)c2F)c(-c2ccnc(N)n2)s1 [DABRAFENIB],> 30 µM (inactive),0.188 µM (active),> 30 µM (inactive),–,> 30 µM (inactive),> 30 µM (inactive),1.48 µM,–
Cn1cc(C2=C(c3cn(C4CCN(Cc5ccccn5)CC4)c4ccccc34)C(=O)NC2=O)c2ccccc21 [ENZASTAURIN],> 30 µM (inactive),–,> 30 µM (inactive),–,–,–,–,–
O=C(Nc1cc(C(F)(F)F)cc(C(F)(F)F)c1)c1cc(Cl)ccc1O [IMD-0354],–,> 30 µM (inactive),> 30 µM (inactive),> 30 µM (inactive),> 30 µM (inactive),> 30 µM (inactive),> 30 µM (inactive),–

# Source: ChEMBL document CHEMBL3991601, “The target landscape of clinical kinase drugs” (Science, 2017)
